Here are results for one molecule from patent publication US20180177749A1, “USE OF CYP EXPRESSION TO DIRECT THERAPEUTIC INTERVENTION IN CANCER” (REGENTS OF THE UNIVERSITY OF MINNESOTA, priority 2016, published 2018).

Where two headings read alike, the source gives them in different places.

Series [1] has as its target T1, CYP3A4 (Homo sapiens, UniProt P08684).
T1 construct: host or cells: insect cells (microsomes)
Nature of the series: Recombinant microsomal CYP-mediated EET biosynthesis (CYP3A4 Supersomes). The class given is biochemical. As to conditions: for IC50: microsomal CYP3A4. The source says:
Samples were submitted to liquid chromatography-electrospray ionization/multiple reaction monitoring/mass spectrometry (LC-ESI/MRM/MS) analysis in a Thermo Electron Quantum Discovery Max triple quadrupole mass spectrometer (Thermo Finnigan, San Jose, Calif.) coupled with an Agilent 1100 HPLC (Santa Clara, Calif.), using argon as the collision gas. […] A standard curve was obtained by linear regression of the peak area ratio of authentic EET regioisomers against internal standards. The amount of EETs in samples was calculated according to the standard curve. The (±)-5,6-EET regioisomer was not measured because it undergoes rapid internal degradation.
CYP3A4 or 2C8 Supersomes™ (BD Biosciences) were incubated at 37° C. for 30 min in the presence of AA (5 μM) in […] Tris-HCl, pH 7.4, containing 1 mm EDTA and 1 mm NADPH. Reactions were terminated by adding methylene chloride (0.5 ml). Samples were centrifuged at 3,000 rpm for 10 min and 150 μl of the organic phases were evaporated under nitrogen. Samples were reconstituted in 20 μl of MeOH containing [^13C20]EET internal standards and submitted to a Thermo Electron Quantum Discovery Max triple quadrupole mass spectrometer (Thermo Finnigan, San Jose, Calif.) coupled with an Agilent 1100 HPLC (Santa Clara, Calif.) for analysis. […] Concentrations of EETs generated by CYP Supersomes™ were calculated by linear regression against standard curve generated with EET standards.

Series [2] deals with MDA-MB-435/LCC6. Nature of the series: Cell growth inhibition, MDA-MB-435/LCC6. Format: cell-based. As to conditions: MDA-MB-435/LCC6, Triple negative.
In series [3] the test system is MCF-7 xenograft. On the procedure:
17-β-estradiol (E2) was given in drinking water at 1 μM beginning the day of tumor implantation. […] Tumors were collected from each mouse after sacrifice and endpoint tumor weights were measured.
N=20 mice per arm for each study; error bars represent SEM.
In the HBB dose optimization model, mammary fat pad injection was performed with the MCF-7 cell line as described above, and tumors were allowed to grow until an average tumor volume of 50 mm^3. Mice were randomized, and tumor growth was monitored. Estradiol (1 μM) was present in the drinking water as above. Cremophor was administered weekly in the vehicle and HBB groups so that paclitaxel could be used in subsequent chemotherapy synergy studies (unpublished data). Mice were dosed at 6 mg/kg/day ip 4 days of 7 with no more than 2 consecutive days dosing and weighed daily. […] Tumors were harvested at the endpoint of the study following sacrifice by isoflurane anesthesia followed by cervical dislocation. Organs were harvested for histopathological assay of end organ toxicity.

The target in series [4] is T2, CYP2C8 (Homo sapiens, UniProt P10632).
T2 sequence (P10632 1-490): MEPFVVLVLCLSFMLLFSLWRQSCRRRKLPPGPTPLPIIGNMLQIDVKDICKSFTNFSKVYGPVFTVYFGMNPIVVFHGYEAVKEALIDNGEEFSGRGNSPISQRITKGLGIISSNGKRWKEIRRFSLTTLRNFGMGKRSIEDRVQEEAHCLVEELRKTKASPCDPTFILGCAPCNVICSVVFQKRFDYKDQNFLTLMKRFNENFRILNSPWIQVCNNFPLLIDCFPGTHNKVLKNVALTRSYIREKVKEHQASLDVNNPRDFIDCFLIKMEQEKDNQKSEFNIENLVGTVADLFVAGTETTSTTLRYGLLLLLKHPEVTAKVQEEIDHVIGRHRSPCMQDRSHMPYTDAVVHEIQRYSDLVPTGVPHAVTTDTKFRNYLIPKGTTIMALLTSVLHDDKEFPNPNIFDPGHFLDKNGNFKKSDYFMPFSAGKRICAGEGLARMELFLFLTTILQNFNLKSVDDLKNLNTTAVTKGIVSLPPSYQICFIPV
The experiment in a line: Recombinant microsomal CYP-mediated EET biosynthesis (CYP2C8 Supersomes). The class given is biochemical. Also noted: host or cells: insect cells (microsomes). The protocol:
Samples were submitted to liquid chromatography-electrospray ionization/multiple reaction monitoring/mass spectrometry (LC-ESI/MRM/MS) analysis in a Thermo Electron Quantum Discovery Max triple quadrupole mass spectrometer (Thermo Finnigan, San Jose, Calif.) coupled with an Agilent 1100 HPLC (Santa Clara, Calif.), using argon as the collision gas. Negative ion monitoring was performed at the following diagnostic product ions: 319 m/z→155 m/z for 8,9-EET; 319 m/z→179 m/z for 11,12-EET; 319 m/z→219 m/z for 14,15-EET; 339 m/z→163 m/z for 8,9-[13C20]EET; 339 m/z→233 m/z for 11,12-[13C20]EET; and 339 m/z→259 m/z for 14,15-[^13C20]EET. Base-line resolution of EET regioisomers was achieved on a Phenomenex Luna C18 (2) reverse phase capillary column (250×0.5 mm, 5-μm particles) using the following mobile phase combinations: isocratic 5% B for 5 min, gradient 5-70% B for 5 min, hold at 70% for 30 min and then 95% for 10 min; A: 0.01% acetic acid in water, B: 0.01% acetic acid in acetonitrile; […] flow rate. A standard curve was obtained by linear regression of the peak area ratio of authentic EET regioisomers against internal standards. The amount of EETs in samples was calculated according to the standard curve. The (±)-5,6-EET regioisomer was not measured because it undergoes rapid internal degradation.
CYP3A4 or 2C8 Supersomes™ (BD Biosciences) were incubated at 37° C. for 30 min in the presence of AA (5 μM) in […] Tris-HCl, pH 7.4, containing 1 mm EDTA and 1 mm NADPH. Reactions were terminated by adding methylene chloride (0.5 ml). Samples were centrifuged at 3,000 rpm for 10 min and 150 μl of the organic phases were evaporated under nitrogen. […] Reaction extracts were chromatographed under the conditions described above, and ions of 319 m/z, corresponding to AA monooxygenation products, were selectively monitored in negative mode. Concentrations of EETs generated by CYP Supersomes™ were calculated by linear regression against standard curve generated with EET standards.

T1 sequence (P08684 whole entry): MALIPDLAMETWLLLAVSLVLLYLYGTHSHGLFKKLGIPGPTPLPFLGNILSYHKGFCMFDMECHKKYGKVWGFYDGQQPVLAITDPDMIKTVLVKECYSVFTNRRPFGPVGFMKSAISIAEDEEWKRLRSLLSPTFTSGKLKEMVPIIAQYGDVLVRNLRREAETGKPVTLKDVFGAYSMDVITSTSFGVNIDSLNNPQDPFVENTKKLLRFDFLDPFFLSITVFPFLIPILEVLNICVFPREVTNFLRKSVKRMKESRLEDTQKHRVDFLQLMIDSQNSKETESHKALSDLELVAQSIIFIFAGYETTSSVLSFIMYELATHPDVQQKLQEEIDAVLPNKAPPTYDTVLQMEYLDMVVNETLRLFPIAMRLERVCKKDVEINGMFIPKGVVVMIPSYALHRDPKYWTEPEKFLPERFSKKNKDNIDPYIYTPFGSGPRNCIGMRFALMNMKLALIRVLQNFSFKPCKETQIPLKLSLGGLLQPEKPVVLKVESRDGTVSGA

In the case of `CCCCCCNC(=N)NC(=N)NCc1ccccc1` [HBB, N1-hexyl-N5-benzyl-biguanide], the Ki in series [1] (CYP3A4 epoxygenase activity) was found to be 9 µM. Moreover, the IC50 was determined as 9.5 µM in series [1] (read-out: IC50, CYP3A4 synthesis of (±)-8,9-EET); 8 µM in series [1] (read-out: IC50, CYP3A4 synthesis of (±)-11,12-EET); 12.5 µM in series [2]; 65 µM in series [4] (read-out: IC50, CYP2C8 synthesis of (±)-8,9-EET); 50 µM in series [4] (read-out: IC50, CYP2C8 synthesis of (±)-11,12-EET); 45 µM in series [4] (read-out: IC50, CYP2C8 synthesis of (±)-14,15-EET). Besides, the “end point tumor weights lower than control” value in series [3] (4 mg/kg/day ip) worked out at 34%. In addition, the tumor growth result in series [3] (4 mg/kg/day ip) is on record as “slower growth”; in series [3] (6 mg/kg ip 4 of 7 days (24 mg/kg/week), from 50 mm^3) it was “significant reduction of tumor growth”. Also, the “end point tumor weight (mean±SEM)” value in series [3] (4 mg/kg/day ip, n=19) amounted to 220 ± 35 mg; in series [3] (24 mg/kg/week ip, n=13), 127 ± 16 mg. For the same molecule, in series [3] (24 mg/kg/week ip), the “end point tumor weights lower than PBS group” value was 48%. For the same molecule, the “weight decline vs. control” value in series [3] (mouse, in vivo, ip, 6 mg/kg/day) was > 5%.
